In general, pest or weed control refers to how far the test organism was held down. Lower therefore signals weak suppression.

What all share (format): in vivo
For test [1], the system named is Yellow Fever Mosquito (Aedes aegypti, AEDSAE) (YFM). The experiment in a line: Bioassays on Yellow Fever Mosquito (YFM), 96-well plate larval assay. The conditions noted are these: Table ABC rating. As to the method: Example C: Bioassays on Yellow Fever Mosquito (Aedes aegypti, AEDSAE) (“YFM”)
Certain molecules disclosed in this document were tested against YFM using procedures described in the following paragraph. In the reporting of the results, the “GPA & YFM Rating Table” was used (See Table Section).
Master plates containing 400 μg of a molecule dissolved in 100 μL of dimethyl sulfoxide (DMSO) (equivalent to a 4000 ppm solution) are used. A master plate of assembled molecules contains 15 μL per well. To this plate, 135 μL of a 90:10 water:acetone mixture is added to each well. A robot (Biomek® NXP Laboratory Automation Workstation) is programmed to dispense 15 μL aspirations from the master plate into an empty 96-well shallow plate (“daughter” plate). There are 6 reps (“daughter” plates) created per master. The created daughter plates are then immediately infested with YFM larvae.
The day before plates are to be treated, mosquito eggs are placed in Millipore water containing liver powder to begin hatching (4 g. into 400 mL). After the daughter plates are created using the robot, they are infested with 220 μL of the liver powder/larval mosquito mixture (about 1 day-old larvae). After plates are infested with mosquito larvae, a non-evaporative lid is used to cover the plate to reduce drying. Plates are held at room temperature for 3 days prior to grading. After 3 days, each well is observed and scored based on mortality. The results are indicated in the table entitled “Table ABC: Biological Results” (See Table Section).

Test [2] relates to Cabbage Looper (Trichoplusia ni, TRIPNI) (CL). The experiment in a line: Bioassays on Cabbage Looper (CL), 128-well diet tray assay. The conditions noted are these: Table ABC rating, Cabbage Looper. As to the method:
(§1) Example A: Bioassays on Beet Armyworm (Spodoptera exigua, LAPHEG) (“BAW”), Corn Earworm (Helicoverpa zea, Helize) (“CEW”), and Cabbage Looper (Trichoplusia ni, TRIPNI) (“CL”)
(§2) Certain molecules disclosed in this document were tested against BAW, CEW, and CL using procedures described in the following examples. In the reporting of the results, the “BAW, CEW, & CL Rating Table” was used (See Table Section).
Bioassays on CL were conducted using a 128-well diet tray assay. one to five second instar CL larvae were placed in each well (3 mL) of the diet tray that had been previously filled with 1 mL of artificial diet to which 50 μg/cm^2 of the test molecule (dissolved in 50 μL of 90:10 acetone-water mixture) had been applied (to each of eight wells) and then allowed to dry. Trays were covered with a clear self-adhesive cover and held at 25° C., 14:10 light-dark for five to seven days. Percent mortality was recorded for the larvae in each well; activity in the eight wells was then averaged. The results are indicated in the table entitled “Table ABC: Biological Results” (See Table Section).
(§3) Bioassays on BAW and CL were conducted according to the procedures outlined in Example A: Bioassays on Beet Armyworm (“BAW”) and Cabbage Looper (“CL”) using the indicated concentrations.

Test [3] deals with Beet Armyworm (Spodoptera exigua, LAPHEG) (BAW). Description: Bioassays on Beet Armyworm (BAW), 128-well diet tray assay. Particulars: Table ABC rating, Beet Armyworm. As to the method: as §1, §2
Bioassays on BAW were conducted using a 128-well diet tray assay. one to five second instar BAW larvae were placed in each well (3 mL) of the diet tray that had been previously filled with 1 mL of artificial diet to which 50 μg/cm^2 of the test molecule (dissolved in 50 μL of 90:10 acetone-water mixture) had been applied (to each of eight wells) and then allowed to dry. Trays were covered with a clear self-adhesive cover and held at 25° C., 14:10 light-dark for five to seven days. Percent mortality was recorded for the larvae in each well; activity in the eight wells was then averaged. The results are indicated in the table entitled “Table ABC: Biological Results” (See Table Section).
as §3

Consider `CN(CC(F)(F)F)C(=O)c1ccc(/C(F)=C/C(c2cc(Cl)c(Cl)c(Cl)c2)C(F)(F)F)cc1C(F)(F)F` (stereo not drawn) [F29, (Z)—N-Methyl-4-(1,4,4,4-tetrafluoro-3-(3,4,5-trichlorophenyl)but-1-en-1-yl)-N-(2,2,2-trifluoroethyl)-2-(trifluoromethyl)benzamide], for which the YFM entry in test [1] is given as “A (80-100)”. Further, the pest or weed control at 50 µg/cm2 in test [2] and in test [3] was 50 to 100% each time.
For `Cc1cc(C(/C=C(\F)c2ccc(C(=O)NC(C)C(F)(F)F)c(C(F)(F)F)c2)C(F)(F)F)cc(C)c1Cl` (stereo not drawn) [F30, 4-((Z)-3-(4-Chloro-3,5-dimethylphenyl)-1,4,4,4-tetrafluorobut-1-en-1-yl)-2-(trifluoromethyl)-N-(1,1,1-trifluoropropan-2-yl)benzamide], the YFM entry in test [1] is “A (80-100)”. In addition, the pest or weed control at 50 µg/cm2 in test [2] and in test [3] was 50 to 100% each time.
For the compound `Cc1cc(C(/C=C(\F)c2ccc(C(=O)NC3CCC(F)(F)CC3)c(C(F)(F)F)c2)C(F)(F)F)cc(C)c1Cl` (stereo not drawn) [F31, (Z)-4-(3-(4-Chloro-3,5-dimethylphenyl)-1,4,4,4-tetrafluorobut-1-en-1-yl)-N-(4,4difluorocyclohexyl)-2-(trifluoromethyl)benzamide], the YFM result in test [1] is on record as “A (80-100)”. Further, the pest or weed control at 50 µg/cm2 in test [2] and in test [3] was 50 to 100% each time.
In the case of `O=C(NC1CCC(F)(F)CC1)c1ccc(/C(F)=C/C(c2cc(Br)c(Cl)c(Br)c2)C(F)(F)F)cc1C(F)(F)F` (stereo not drawn) [F32, (Z)-4-(3-(3,5-Dibromo-4-chlorophenyl)-1,4,4,4-tetrafluorobut-1-en-1-yl)-N-(4,4-difluorocyclohexyl)-2-(trifluoromethyl)benzamide], the YFM entry in test [1] is “A (80-100)”. The pest or weed control at 50 µg/cm2 in test [2] and in test [3] was 50 to 100% each time.
Regarding `F/C(=C\C(c1cc(Cl)c(Cl)c(Cl)c1)C(F)(F)F)c1ccc(C(=S)NCC(F)(F)F)c(C(F)(F)F)c1` (stereo not drawn) [F33, (Z)-4-(1,4,4,4-tetrafluoro-3-(3,4,5-trichlorophenyl)but-1-en-1-yl)-N-(2,2,2-trifluoroethyl)-2-(trifluoromethyl)benzothioamide], the YFM result in test [1] is recorded as “B (More than 0-Less than 80)”. Also, the pest or weed control at 50 µg/cm2 in test [2] and in test [3] was 50 to 100% in each case.
Regarding `CN(CC(F)(F)F)C(=S)c1ccc(/C(F)=C/C(c2cc(Cl)c(Cl)c(Cl)c2)C(F)(F)F)cc1C(F)(F)F` (stereo not drawn) [F34, (Z)—N-Methyl-4-(1,4,4,4-tetrafluoro-3-(3,4,5-trichlorophenyl)but-1-en-1-yl)-N-(2,2,2-trifluoroethyl)-2-(trifluoromethyl)benzothioamide], in test [1], the YFM entry is given as “B (More than 0-Less than 80)”. Moreover, the pest or weed control at 50 µg/cm2 in test [2] and in test [3] was 50 to 100% throughout.
As for `O=C(NC1CCC(F)(F)CC1)c1ccc(/C(F)=C/C(c2cc(Br)cc(Br)c2)C(F)(F)F)cc1C(F)(F)F` (stereo not drawn) [F40, (Z)-4-(3-(3,5-Dibromophenyl)-1,4,4,4-tetrafluorobut-1-en-1-yl)-N-(4,4-difluorocyclohexyl)-2-(trifluoromethyl)benzamide], the YFM result in test [1] is “A (80-100)”. The pest or weed control at 50 µg/cm2 in test [2] and in test [3] was 50 to 100% each time.
Regarding `O=C(NC1CCC(F)(F)CC1)c1ccc(/C(F)=C/C(c2cc(Cl)c(F)c(Cl)c2)C(F)(F)F)cc1C(F)(F)F` (stereo not drawn) [F41, (Z)-4-(3-(3,5-Dichloro-4-fluorophenyl)-1,4,4,4-tetrafluorobut-1-en-1-yl)-N-(4,4-difluorocyclohexyl)-2-(trifluoromethyl)benzamide], in test [1], the YFM entry is “A (80-100)”. The pest or weed control at 50 µg/cm2 in test [2] and in test [3] was 50 to 100% each time.

The values above are taken from patent US9924717B2, “Molecules having pesticidal utility, and intermediates, compositions, and processes, related thereto” (Dow AgroSciences LLC, priority 2016, dated 2018).
